“Also recorded” adds a separate entry of the source. Read-outs that look alike come from different tables or passages of the source.
Experiments:
CD8+ cells = type: cell-based, human
resting pan-T cells [1] = test system: resting pan-T cells
resting pan-T cells [2] = type: cell-based, human
IFITM1 [3] = type: cell-based, human
[4] = test system: phosphorylated SAMHD1 (pSAMHD1); type: cell-based, human; details: CD4+ and CD8+ T cells; for proportion of pSAMHD1 to total SAMHD1: IL-7 15 ng/mL, IL-15 15 ng/mL or both
Method: The effect of IL-7 and IL-15 on phosphorylated SAMHD1 (pSAMHD1) and IFITM1 expression was assessed. CD4+ and CD8+ T cells were treated with either IL-2 (100 U/mL), IL-15 (15 ng/mL), IL-7 (15 ng/mL), or a composition comprising both IL-7 and IL-15. Cells were activated with anti-CD3/[…] antibody coated beads at a ratio of 3:1, and then cells were assessed for expression of IFITM1 or pSAMHD1. Aggregate densitometry across multiple donors are shown in FIG. 3A (CD8+) and FIG. 3B (CD4+), while representative western blots are also depicted in FIG. 3C (CD8+) and FIG. 3D (CD4+).

resting pan-T cells [5] = type: cell-based, human; remark: listed apart in the source
IFITM1 [6] = type: cell-based, human; remark: listed apart in the source
pSAMHD1 = type: cell-based, human
IFITM1 [7] = type: cell-based, human; remark: listed apart in the source
IFITM1 [8] = type: cell-based, human; remark: listed apart in the source

CO[C@H]1C[C@@H]2CC[C@@H](C)[C@@](O)(O2)C(=O)C(=O)N2CCCC[C@H]2C(=O)O[C@H]([C@H](C)C[C@@H]2CC[C@@H](OC(=O)C(C)(CO)CO)[C@H](OC)C2)CC(=O)[C@H](C)/C=C(\C)[C@@H](O)[C@@H](OC)C(=O)[C@H](C)C[C@H](C)/C=C/C=C/C=C/1C [TEM, temsirolimus]
transduction efficiency (viral copy number per diploid genome) (CD8+ cells): Increased transduction efficiency | CD3 number (resting pan-T cells [1]): remained generally consistent | CD8 and CD4 T-cells (cell counts) (resting pan-T cells [1]): reduced | transduction of the GFP transgene (% GFP) (resting pan-T cells [2]): enhance transduction | IFITM1 protein expression (IFITM1 [3]): pronounced loss of IFITM1 protein expression

IL-7: recombinant cytokine
levels of pSAMHD1 ([4]; IL-7 15 ng/mL pre-treatment): increased levels of pSAMHD1 | proportion of pSAMHD1 to total SAMHD1 [4]: increased | transduction efficiency (% GFP) (resting pan-T cells [5]): did not lead to dose-dependent differences in transduction efficiency | cytotoxicity (Nalm6 loss related to untransduced controls) (Nalm6 cells): Increased cytotoxicity | IFITM1 expression (IFITM1 [6]): similarly increased | transduction efficiency (% GFP) with cytokine pretreatment (resting pan-T cells [2]): positively impact transduction; also recorded: increased transduction efficiency | pSAMHD1 levels (pSAMHD1): increase in pSAMHD1 levels

IL-15: recombinant cytokine
proportion of pSAMHD1 to total SAMHD1 [4]: increased | IFITM1 expression (IFITM1 [6]): similarly increased

CO[C@H]1C[C@@H]2CC[C@@H](C)[C@@](O)(O2)C(=O)C(=O)N2CCCC[C@H]2C(=O)O[C@H]([C@H](C)C[C@@H]2CC[C@@H](O)[C@H](OC)C2)CC(=O)[C@H](C)/C=C(\C)[C@@H](O)[C@@H](OC)C(=O)[C@H](C)C[C@H](C)/C=C/C=C/C=C/1C [rapamycin]
downregulation of IFITM1 expression (IFITM1 [7]): 20-35% | reduction of IFITM1 expression (IFITM1 [7]): 5-40%

C[C@@H]1[C@H](O)[C@@H](C)/C=C/C=C/C=C/C=C/C=C/C=C/C=C/[C@H](O[C@@H]2O[C@H](C)[C@@H](O)[C@H](N)[C@@H]2O)C[C@@H]2O[C@](O)(C[C@@H](O)C[C@@H](O)[C@H](O)CC[C@@H](O)C[C@@H](O)CC(=O)O[C@H]1C)C[C@H](O)[C@H]2C(=O)O [AmphoB, Amphotericin B]
restriction factor IFITM1 (western blot) (IFITM1 [8]): inactivation or loss | CD8 and CD4 cell number (resting pan-T cells [1]): slightly reduced | concentrations at which gain in transduction efficiency is seen (resting pan-T cells [2]): ≥ 0.1 µM | transduction efficiency (% GFP) (resting pan-T cells [2]): increased transduction efficiency

— US20260027145A1 (priority 2022, published 2026)
